Assay results from publication doi:10.1101/2022.10.06.511132v1, “Development of Enterovirus anti-viral agents that target the viral 2C protein” (biorxiv, 2022).

Legend:
[1] = test system: EV-A71; assay: microbe, parasite or virus in culture; design: NIAID secondary assay, neutral red cytopathic effect reduction; settings: Enterovirus A, EV71 / EVA71, read-out: EC50 µM, EV-71 neutral red
[2] = target: T1, EV-A71 Δ2C^116-329 (Enterovirus A71, UniProt B9VUU3); assay: malachite green ATPase assay; format: biochemical
T1 construct: N-terminally truncated mature protein 2C residues 116-329, cut from the genome polyprotein; N-terminal MBP tag and C-terminal His6 (kept, MBP-Δ2C-(His)6); codon-optimised synthetic gene in pMALc5x, E. coli Rosetta 2(DE3) pLysS; active as hexamer

[3] = test system: EV-A71; assay: microbe, parasite or virus in culture; design: NIAID secondary assay, virus yield reduction, visual titre; settings: Enterovirus A, EV71 / EVA71, read-out: EC90 µM, EV-71 VYR
[4] = test system: EV-68 (EV-D68); assay: microbe, parasite or virus in culture; design: NIAID secondary assay, neutral red cytopathic effect reduction; settings: Enterovirus D, read-out: EC50 µM, EV-68 neutral red
[5] = test system: EV-68 (EV-D68); assay: microbe, parasite or virus in culture; design: NIAID secondary assay, virus yield reduction, visual titre; settings: Enterovirus D, read-out: EC90 µM, EV-68 VYR

T1 sequence (B9VUU3 1227-1440, stated change not applied): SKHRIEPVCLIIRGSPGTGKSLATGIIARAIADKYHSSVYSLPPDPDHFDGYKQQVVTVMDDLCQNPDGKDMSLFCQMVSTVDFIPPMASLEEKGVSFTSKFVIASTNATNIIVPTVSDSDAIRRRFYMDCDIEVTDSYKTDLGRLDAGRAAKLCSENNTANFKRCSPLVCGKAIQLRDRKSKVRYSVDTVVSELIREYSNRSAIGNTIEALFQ

| Structure (SMILES) | EC50 [1] [µM] | IC50 [2] [µM] | EC90 [3] [µM] | EC50 [4] [µM] | EC90 [5] [µM] |
| --- | --- | --- | --- | --- | --- |
| Cc1ccc2[nH]c(-c3ccc(NC(=O)c4cccs4)cc3)nc2c1 [SJW-2C-227] | 1.7 | 23.4 | 3.2 | 0.52 | 0.59 |
| Cc1ccc2[nH]c(-c3ccc(NC(=O)c4ccc(C)c(C)c4)cc3)nc2c1 [SJW-2C-234] | – | 55 | – | – | – |
| O=C(Nc1ccc(-c2nc3cc4ccccc4cc3[nH]2)cc1)c1cccc(Br)c1 [SJW-2C-239] | – | 33.1 | – | – | – |
